In patent US8268865B2, “Quaternary alkyl ammonium bacterial efflux pump inhibitors and therapeutic uses thereof” (Rempex Pharmaceuticals, Inc., priority 2007, dated 2012):
Like-named read-outs stand apart in the source and are kept apart here.

Experiments:
[1] = Rat serum pharmacokinetics after 1.5-hour IV infusion; format: in vivo; details: for clearance: read-out: Clearance (free drug clearance) (converted)
Method: In the experiment depicted in Table 2, rat serum pharmacokinetics of compounds selected inhibitor compounds was evaluated after 1.5-hour IV infusion of 1.5 ml solution of corresponding efflux pump inhibitor in 0.9% saline. Depending on the concentration used the total infused dose was 10 or 20 mg/kg. A two-compartment model was used to fit the data and calculate PK parameters.

[2] = system: P. aeruginosa strain PAM1723 overexpressing MexAB-OprM; assay: Checkerboard assay: potentiation of in vitro antibacterial activity of levofloxacin by efflux pump inhibitors; format: cell-based; details: for MPC8: lowest inhibitor concentration giving antibacterial activity with levofloxacin at 1/8 of its MIC; for MPC8 / MPC32: PAM1723, MHB, 20 h at 35° C.; for MPC32: lowest inhibitor concentration giving antibacterial activity with levofloxacin at 1/32 of its MIC
Method: EPI activity was recorded as concentration of an EPI compound that is necessary to increase susceptibility to levofloxacin of the strain of P. aeruginosa, PAM1723, overexpressing the MexAB-OprM efflux pump eight-fold. The levofloxacin potentiating activity of the test compounds was assessed by the checkerboard assay (Antimicrobial Combinations, Antibiotics in Laboratory Medicine, Ed. Victor Lorian, M.D., Fourth edition, 1996, pp 333-338, which is incorporated herein by reference in its entirety) using a broth microdilution method performed as recommended by the NCCLS (National Committee for Clinical Laboratory Standards (NCCLS), 1997, Methods for Dilution of Antimicrobial Susceptibility Tests for Bacteria That Grow Aerobically, Fourth Edition; Approved Standard. NCCLS Document M7-A4, Vol 17 No. 2, which is incorporated herein by reference in its entirety). In this assay, multiple dilutions of two drugs, namely an EPI and levofloxacin, were tested, alone and in combination, at concentrations equal to, above and below their respective minimal inhibitory concentrations (MICs). All EPI compounds were readily soluble in water and stock solutions were prepared at a final concentration of 10 mg/ml. Stock solutions were further diluted, according to the needs of the particular assay, in Mueller Hinton Broth (MHB). Stock solution was stored at −80° C.
The checkerboard assay was performed in microtiter plates. Levofloxacin was diluted in the x-axis, each column containing a single concentration of levofloxacin. EPIs were diluted in the y-axis, each row containing a single concentration of an EPI. The result of these manipulations was that each well of the microtiter plate contained a unique combination of concentrations of the two agents. The assay was performed in MHB with a final bacterial inoculum of 5×105 CFU/ml (from an early-log phase culture). Microtiter plates were incubated during 20 h at 35° C. and were read using a microtiterplate reader (Molecular Devices) at 650 nm as well as visual observation using a microtiter plate-reading mirror.
In the experiment depicted in Table 1, potentiating activities of selected inhibitors are reported as Minimum Potentiating Concentration MPC8 values (or MPC32) which correspond to the lowest concentration of the inhibitor required to achieve antibacterial activity in combination with the concentration of levofloxacin equal to ⅛ (or 1/32) of the levofloxacin concentration required to achieve the same antibacterial effect alone (MIC of levofloxacin).

[3] = rat serum, 1.5-hour IV infusion, dose 20 mg/kg, two-compartment model
[4] = rat serum, 1.5-hour IV infusion, dose 20 mg/kg, read-out: Cmax
[5] = rat serum, 1.5-hour IV infusion, dose 10 mg/kg, two-compartment model
[6] = rat serum, 1.5-hour IV infusion, dose 10 mg/kg, read-out: Cmax
[7] = rat, IV infusion, comparison among compounds of Table 2

Row | Compound | clearance [1, 3] | Cmax [1, 4] | clearance [1, 5] | Cmax [1, 6] | further results
1 | C[N+](C)(CCN)CCC[C@H](N)C(=O)N[C@H](CCc1ccccc1)C(=O)Nc1ccc(F)c(F)c1F [Compound 5, [(4S)-4-azaniumyl-4-{[(1R)-3-phenyl-1-[(2,3,4-trifluorophenyl)carbamoyl]propyl]carbamoyl}butyl](2-azaniumylethyl)dimethylazanium trichloride] | 20.5 mL/min/kg | 19600 ng/mL |  |  | 
2 | C[N+](CCN)(CCN)CCC[C@H](N)C(=O)N[C@@H](Cc1ccc(C(F)(F)F)cc1)C(=O)Nc1cnc2ccccc2c1 [Compound 11, 3-[(2R)-2-[(4R)-1-N,1-N-bis(2-azaniumylethyl)-4-formamido-1-N-methylbutane-1,4-bis(aminium)]-3-[4-(trifluoromethyl)phenyl]propanamido]quinolin-1-ium pentachloride] |  |  | 47.8 mL/min/kg | 7300 ng/mL | 
3 | C[N+](C)(CCN)CCC[C@H](N)C(=O)N[C@H](CCc1ccccc1)C(=O)Nc1cnc2ccccc2c1 [Compound 4, 3-[(2S)-2-[(4R)-1-N-(2-azaniumylethyl)-4-formamido-1-N,1-N-dimethylbutane-1,4-bis(aminium)]-4-phenylbutanamido]quinolin-1-ium tetrachloride] |  |  | 21.5 mL/min/kg | 13400 ng/mL | 
4 | 3-[(2R)-2-[(4S)-1-N,1-N-bis(2-azaniumylethyl)-4-formamido-1-N-methylbutane-1,4-bis(aminium)]-4-phenylbutanamido]-1-{[4-(trifluoromethyl)phenyl]methyl}quinolin-1-ium pentachloride [Compound 53] |  |  |  |  | MPC8 [2]: 2.5 µg/mL; MPC32 [2]: 5 µg/mL
5 | 3-{2-[(4S)-1-N,1-N-bis(2-azaniumylethyl)-4-(N-methylformamido)-1-N-(prop-2-en-1-yl)butane-1,4-bis(aminium)]-3-[4-(trifluoromethyl)phenyl]propanamido}quinolin-1-ium pentachloride [Compound 92] |  |  |  |  | MPC8 [2]: 0.312 µg/mL; MPC32 [2]: 0.625 µg/mL; Cmax ([1]; rat serum, 1.5-hour IV infusion, dose 20 mg/kg): 18300 ng/mL; Clearance (free drug clearance) [1, 3]: 26.5 mL/min/kg
6 | Mixture of 3-[(2S,3R)-2-[(4S)-1-N,1-N-bis(2-azaniumylethyl)-4-formamido-1-N-methylbutane-1,4-bis(aminium)]-3-hydroxy-3-[4-(trifluoromethyl)phenyl]propanamido]quinolin-1-ium pentachloride 15a and 3-[(2R,3S)-2-[(4S)-1-N,1-N-bis(2-azaniumylethyl)-4-formamido-1-N-methylbutane-1,4-bis(aminium)]-3-hydroxy-3-[4-(trifluoromethyl)phenyl]propanamido]quinolin-1-ium pentachloride 15b [Compound 15] |  |  |  |  | MPC8 [2]: 0.312 µg/mL; MPC32 [2]: 0.625 µg/mL
7 | C[N+](CCN)(CCN)CCC[C@H](N)C(=O)N[C@H](Cc1ccc(C(F)(F)F)cc1)C(=O)Nc1cnc2ccccc2c1 [Compound 10, 3-[(2R)-2-[(4S)-1-N,1-N-bis(2-azaniumylethyl)-4-formamido-1-N-methylbutane-1,4-bis(aminium)]-3-[4-(trifluoromethyl)phenyl]propanamido]quinolin-1-ium pentachloride] |  |  | 5.17 mL/min/kg | 30600 ng/mL | efflux pump inhibitory activity (in words) ([2]; comparison among tested compounds): one of the best efflux pump inhibitory activities; free drug clearance (in words) [1, 7]: lowest free drug clearance; serum PK profile (in words) [1, 7]: best serum PK profiles

Continued, in another order:

Row | clearance [1, 3] | Cmax [1, 4] | clearance [1, 5] | Cmax [1, 6] | Compound | further results
8 |  |  | 14.2 mL/min/kg | 25600 ng/mL | C[N+](CCN)(CCN)CCC[C@H](N)C(=O)N[C@@H](CCc1ccccc1)C(=O)Nc1cnc2ccccc2c1.Cl.Cl.[Cl-] [Compound 29, 3-[(2S)-2-[(4S)-1-N,1-N-bis(2-azaniumylethyl)-4-formamido-1-N-methylbutane-1,4-bis(aminium)]-4-phenylbutanamido]quinolin-1-ium pentachloride] | 
9 | 16.7 mL/min/kg | 63000 ng/mL |  |  | C[N+](CCN)(CCN)CCC[C@H](N)C(=O)N[C@H](CCc1ccc(C(F)(F)F)cc1)C(=O)Nc1cnc2ccccc2c1 [Compound 33, 3-[(2R)-2-[(4S)-1-N,1-N-bis(2-azaniumylethyl)-4-formamido-1-N-methylbutane-1,4-bis(aminium)]-4-[4-(trifluoromethyl)phenyl]butanamido]quinolin-1-ium pentachloride] | 
10 |  |  | 16.7 mL/min/kg | 13000 ng/mL | C[N+](CCN)(CCN)CCC[C@H](N)C(=O)N[C@@H](CC1CCCCC1)C(=O)Nc1cnc2ccccc2c1.Cl.Cl.Cl.Cl.[Cl-] [Compound 25, 3-[(2S)-2-[(4S)-1-N,1-N-bis(2-azaniumylethyl)-4-formamido-1-N-methylbutane-1,4-bis(aminium)]-3-cyclohexylpropanamido]quinolin-1-ium pentachloride] | 
11 | 5.83 mL/min/kg | 54600 ng/mL |  |  | C[N+](CCN)(CCN)CCC[C@H](N)C(=O)N[C@H](CCc1ccccc1)C(=O)Nc1cnc2ccccc2c1 [Compound 27, 3-[(2R)-2-[(4S)-1-N,1-N-bis(2-azaniumylethyl)-4-formamido-1-N-methylbutane-1,4-bis(aminium)]-4-phenylbutanamido]quinolin-1-ium pentachloride] | serum PK profile (in words) [1, 7]: best serum PK profiles
12 | 10.8 mL/min/kg | 40200 ng/mL |  |  | C[C@@H](N)C(=O)N[C@@H](CCC[N+](C)(CCN)CCN)C(=O)N[C@@H](Cc1ccc(C(F)(F)F)cc1)C(=O)Nc1cnc2ccccc2c1 [Compound 44, 3-[(2S)-2-[(4S)—N,N-bis(2-azaniumylethyl)-4-formamido-4-[(1R)-1-formamidoethan-1-aminium]-N-methylbutan-1-aminium]-3-[4-(trifluoromethyl)phenyl]propanamido]quinolin-1-ium pentachloride] | serum PK profile (in words) [1, 7]: best serum PK profiles
